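96-well plates; 48 h exposure; 5 concentrations. Endpoints by linear interpolation between flanking doses. Not reached: highest tested concentration assigned. At the TGI there is no net growth.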
Assays:
Test in all cases: DTP human tumour cell line panel, 48 h
786-0 renal = test system: 786-0 renal
CCRF-CEM leukemia = test system: CCRF-CEM leukemia
EKVX NSCLC = test system: EKVX NSCLC
HCC-2998 colon = test system: HCC-2998 colon
HOP-62 NSCLC = test system: HOP-62 NSCLC
HOP-92 NSCLC = test system: HOP-92 NSCLC
HT29 colon = test system: HT29 colon
M14 melanoma = test system: M14 melanoma
MDA-MB-231 breast = test system: MDA-MB-231 breast
MOLT-4 leukemia = test system: MOLT-4 leukemia
NCI-H226 lung = test system: NCI-H226 lung
OVCAR-5 ovarian = test system: OVCAR-5 ovarian
PC-3 prostate = test system: PC-3 prostate
SF-268 CNS = test system: SF-268 CNS
SF-295 CNS = test system: SF-295 CNS
SK-MEL-2 melanoma = test system: SK-MEL-2 melanoma
TK-10 renal = test system: TK-10 renal
U251 CNS = test system: U251 CNS
UACC-62 melanoma = test system: UACC-62 melanoma
MDA-N = test system: MDA-N

| Structure (SMILES) | TGI (786-0 renal) | TGI (CCRF-CEM leukemia) | TGI (EKVX NSCLC) | TGI (HCC-2998 colon) | TGI (HOP-62 NSCLC) | TGI (HOP-92 NSCLC) | TGI (HT29 colon) | TGI (M14 melanoma) | TGI (MDA-MB-231 breast) | TGI (MOLT-4 leukemia) | TGI (NCI-H226 lung) | TGI (OVCAR-5 ovarian) | TGI (PC-3 prostate) | TGI (SF-268 CNS) | TGI (SF-295 CNS) | TGI (SK-MEL-2 melanoma) | TGI (TK-10 renal) | TGI (U251 CNS) | TGI (UACC-62 melanoma) | TGI (MDA-N) |
| --- | --- | --- | --- | --- | --- | --- | --- | --- | --- | --- | --- | --- | --- | --- | --- | --- | --- | --- | --- | --- |
| COC(=O)C1=C(C(=O)OC)SC(=C2S[C@@H]3[C@@H]4C[C@H]([C@@H]3S2)[C@H]2C(=O)OC(=O)[C@@H]42)S1 | > 100 µM | > 100 µM | > 100 µM | > 100 µM | > 100 µM | > 100 µM | > 100 µM | > 100 µM | > 100 µM | > 100 µM | > 100 µM | > 100 µM | > 100 µM | > 100 µM | > 100 µM | > 100 µM | > 100 µM | > 100 µM | > 100 µM |  |
| CC1(S)CC2C(CC1Sc1ccccc1)C2(C)C (configuration not stated) | > 100 µM | > 100 µM | > 100 µM | > 100 µM |  | > 100 µM | > 100 µM | > 100 µM |  | > 100 µM | > 100 µM | > 100 µM |  | > 100 µM | > 100 µM | > 100 µM | > 100 µM | > 100 µM |  |  |
| CC1(C)OCC([C@H]2CC23SCCCS3)O1 (some centres not stated) | > 100 µM |  | > 100 µM |  | > 100 µM | > 100 µM | > 100 µM | > 100 µM |  | > 100 µM | > 100 µM | > 100 µM |  | > 100 µM | > 100 µM | > 100 µM | > 100 µM | > 100 µM | > 100 µM |  |
| O=C(O)CNn1c(SCC(=O)O)nnc(/C=C/c2c(O)ccc3ccccc23)c1=O | > 100 µM | 14.9 µM | 66.2 µM | > 100 µM | > 100 µM |  | > 100 µM | 43.5 µM |  |  |  | > 100 µM | > 100 µM | 97.3 µM | > 100 µM | > 100 µM |  | > 100 µM | 74.4 µM | > 100 µM |
| Cc1nc2ccc(NC3OC(CO)C(O)C(O)C3O)cc2c(=O)n1-c1ccccc1 (configuration not stated) | > 100 µM |  | > 100 µM | > 100 µM | > 100 µM |  | > 100 µM |  | > 100 µM | > 100 µM | > 100 µM | > 100 µM | > 100 µM | > 100 µM | > 100 µM | > 100 µM | > 100 µM | > 100 µM | > 100 µM | > 100 µM |
| Cc1cnc2c(c1)C(=O)C1=C(OC(C)(C)CC1O)C2=O (configuration not stated) | 28.2 µM | 51.1 µM | 36.4 µM | 32.9 µM | 34 µM | 30.5 µM | 43.6 µM | 30.5 µM |  | 44.3 µM | 37.5 µM | > 100 µM |  | 37.2 µM | 26.6 µM | > 100 µM | 34.1 µM | 29.3 µM | 12.6 µM |  |
| CC(=O)C(CN(C)C)C(c1ccccc1)c1c(O)c2ccccc2oc1=O (configuration not stated) | > 100 µM | > 100 µM | > 100 µM | > 100 µM | > 100 µM | > 100 µM | > 100 µM | > 100 µM |  | > 100 µM | > 100 µM | > 100 µM |  | > 100 µM | > 100 µM | > 100 µM | > 100 µM | > 100 µM | > 100 µM |  |
| O=S(=O)(c1ccccc1)n1cc(C[P+](c2ccccc2)(c2ccccc2)c2ccccc2)c2ccccc21 | 16.3 µM | 12.8 µM | 15.8 µM | 15.7 µM | 12.6 µM | 5.53 µM | 13.4 µM | 7.04 µM |  | 23.6 µM | 18.1 µM | 32.2 µM |  | 18.6 µM | 24.3 µM | 5.87 µM | 16.9 µM | 15.8 µM | 17.8 µM |  |
| CNS(=O)(=O)NN(C)S(=O)(=O)c1ccc2ccccc2c1 | > 100 µM | > 100 µM | > 100 µM | > 100 µM | > 100 µM |  | > 100 µM | > 100 µM |  | > 100 µM | > 100 µM |  |  |  | > 100 µM | > 100 µM | > 100 µM | > 100 µM | > 100 µM |  |
| O=C(Nc1cc(Cl)cc(Cl)c1)/C(Cc1nc2ccccc2[nH]c1=O)=N/NC(=O)c1ccncc1 | > 100 µM | > 100 µM | > 100 µM | > 100 µM | > 100 µM | > 100 µM |  | > 100 µM |  | > 100 µM |  | > 100 µM |  |  | > 100 µM | > 100 µM | > 100 µM | > 100 µM | > 100 µM |  |
| COC(=O)c1c[nH]c2c1-c1cc(C(=O)OCc3ccccc3)n(S(=O)(=O)c3ccc(C)cc3)c1C(=O)C2=O | 1.02 µM | > 33.3 µM | 0.291 µM | 1.9 µM | 1.06 µM | 1.29 µM | 0.418 µM | 0.289 µM | 0.401 µM |  | 0.889 µM | 2.9 µM | 1.19 µM | 2.27 µM | 0.312 µM | 0.521 µM | 4.1 µM | 1.13 µM | 0.363 µM |  |
| Cc1ccc(N=NN(C)C(=O)C(C)N)cc1 (configuration not stated) | > 100 µM | > 100 µM | > 100 µM | > 100 µM | > 100 µM | > 100 µM | > 100 µM | > 100 µM |  | > 100 µM | > 100 µM | > 100 µM | > 100 µM | > 100 µM | > 100 µM | > 100 µM | > 100 µM | > 100 µM | > 100 µM | > 100 µM |
| CCCCCCCCCCCCCCCC(=O)OCC1OC(OC)C2NP(=O)(N(CCCl)CCCl)OC1C2O (configuration not stated) | 3.85 µM | 9.26 µM | 47.4 µM | 9.46 µM | 10.8 µM | 5.51 µM | > 66.8 µM | 18.1 µM |  | 0.968 µM | 32.2 µM | 59.2 µM | 18.9 µM | 14.8 µM | > 41.8 µM | 24.3 µM | 31.7 µM | > 19.5 µM | 8.71 µM |  |
| CCCCN[C@H]1C2C3CC4C5CC(C42)C1(C)C53 (some centres not stated) | > 100 µM | > 100 µM | > 100 µM | > 100 µM | > 100 µM | > 100 µM | > 100 µM | > 100 µM |  | > 100 µM | > 100 µM | > 100 µM |  | > 100 µM | > 100 µM | > 100 µM | > 100 µM | > 100 µM | > 100 µM |  |

Source: PubChem BioAssay (NCI)
